Format in all cases: physicochemical
Data set [1] is described as follows: Water content by Karl Fischer method. Conditions: crystal after heating and drying at 100° C. for 9 hours. On the procedure: Measurement Example by Karl Fischer Method
Used equipment: AQV-2200 (HIRANUMA SANGYO Co., Ltd.)
Measurement method: The water content in the crystal is measured in accordance with instructions for use of AQV-2200 (HIRANUMA SANGYO Co., Ltd.)

Data set [2] is described as follows: Angle of repose measurement (Multi Tester MT-1001T). Conditions: sieve 1.18 mm, vibration width 0.5 to 0.6 mm; mean of three sites. From the text: The angle of repose refers to an angle formed by a generating line of a cone formed with a powder when the powder is allowed to gently fall onto the horizontal plane through a kind of funnel and a horizontal plane.
The angle of repose can be measured using Multi Tester MT-1001T (manufactured by Seishin Enterprise Co, Ltd.) in accordance with the accompanying manual according to the following measurement example.
Measurement Example of Angle of Repose
Used equipment: multi-tester MT-1001T type (manufactured by Seishin Enterprise Co., Ud.)
Vibration width: 0.5 to 0.6 mm
Measurement method: Crystals are allowed to fall by passing through a sieve of 1.18 mm that is vibrated with a width of 0.5 to 0.6 mm, and are deposited on an angle-of-repose table (part number: MT-1029). The angle-of-repose table is rotated without being given vibration, angles are read at three sites, and an arithmetic mean value of the angles is determined to be the angle of repose.

Data set [3] can be described thus: Uniformity coefficient from particle size distribution measurement. Conditions: ratio of 60% passing to 10% passing particle diameter; closer to 1 = higher fluidity. From the text: The uniformity coefficient is an index representing fluidity of the powder, and refers to a ratio obtained by dividing a particle diameter through which the powder in an amount of 60% passes by a particle diameter through which the powder in an amount of 10% passes on a cumulative particle diameter distribution curve measured by particle size distribution measurement or sieve division. The closer the value of the uniformity coefficient is to 1, the higher the fluidity is.
The uniformity coefficient can be measured in accordance with the accompanying manual using, for example, a particle size distribution measuring device LS 13 32 (manufactured by Beckman Coulter, Inc.).

A short description of data set [4]: Methanol content (residual methanol) measured using a gas chromatograph. The following applies: value includes methanol adhering to the crystal surface. On the procedure:
Analysis Example Using Gas Chromatograph
Used equipment: GC-2014 (manufactured by Shimadzu Corporation)
Column: AGILENT J&W DB-WAX 30 m×0.535 mm×1.00 μm (Agilent Technologies, Inc.)
Column temperature: 200° C.
By analysis using HPLC, it was confirmed that the crystal was a crystal of eucomic acid. […] The methanol content is a value including methanol adhering to the crystal surface. The methanol content in the crystal except for the methanol adhering to the crystal surface was 9.0 wt %. It was considered from this that the crystal was a mono-methanol solvate crystal of eucomic acid.
Subsequently, the obtained methanol solvate crystal of eucomic acid was heated and dried at 100° C. for 9 hours at normal pressure. By analysis using HPLC, it was confirmed that the crystal after heating and drying was a crystal of eucomic acid. […] As a result of measuring residual methanol using a gas chromatograph, a methanol content of the crystal was 0.14 wt %. It was found from the above that the crystal was a non-solvate crystal of eucomic acid.

The nature of data set [5]: Methanol content in crystal, except methanol adhering to the crystal surface, by thermal analysis. Conditions: excluding surface-adhering methanol. From the text:
The fact that the methanol solvate crystal of eucomic acid is a mono-methanol solvate crystal can be confirmed by the fact that a methanol content in the crystal except for methanol adhering to a crystal surface thereof is generally 7.0 to 14.0 wt %, preferably 9.0 to 11.0 wt %.
The methanol content in the crystal except for the methanol adhering to the crystal surface can be measured by, for example, thermal analysis described in the following measurement example.
Measurement Example of Methanol Content in Crystal by Thermal Analysis
Used equipment: EXSTAR 6000 TG/DTA 6200 (manufactured by Seiko Instruments Inc.)
Measurement conditions: Temperature rises from 20° C. to 30° C. at 20° C./min→Hold for 15 minutes at 30° C.→Temperature rises from 30° C. to 250° C. at 5° C./min
Nitrogen flow rate: 300 mL/min

Regarding `O=C(O)C[C@](O)(Cc1ccc(O)cc1)C(=O)O` [Non-solvate crystal, (R)-2-hydroxy-2-[(4-hydroxyphenyl)methyl]butanedioic acid], the “Water content (hydrated water)” value in data set [1] was “did not contain hydrated water”. Also, the Angle of repose in data set [2] stood at 39.0 degree. Besides, the Uniformity coefficient in data set [3] stood at 3.36. For the same molecule, the Methanol content in data set [4] and in data set [4] (listed as non-solvate crystal of eucomic acid) was 0.14 wt % in each case.
Take `O=C(O)C[C@](O)(Cc1ccc(O)cc1)C(=O)O` [Methanol solvate crystal, (R)-2-hydroxy-2-[(4-hydroxyphenyl)methyl]butanedioic acid]: the Angle of repose in data set [2] is listed as 45.7 degree. In data set [5], the “Methanol content in the crystal except for the methanol adhering to the crystal surface” value is listed as 9.0 wt %. The Uniformity coefficient in data set [3] came out at 4.25. Also, the Methanol content in data set [4] and in data set [4] (listed as methanol solvate crystal of eucomic acid) was 28.1 wt % in each case.
